# Laboratory results from patent US20100112012A1, “MODULATION OF IMMUNE RESPONSES” (CLEVELAND CLINIC FOUNDATION, priority 2005, published 2010).
# Legend:
# [1] = system: p53; experiment: p53-responsive reporter activity in tumor cells (HT1080 and others); format: cell-based, human
# Experimental: (§1) Transient transfections. 2×10^5 cells were plated into 6-well plates and, after overnight incubation, transfected with Lipofectamin Plus reagent (Gibco BRL) with 0.5 μg of reporter plasmids (p21-ConALuc or pNF-κBLuc) in combination with different concentrations of plasmids expressing p53, Arf, Ss-IκB, or siHDM2. Corresponding empty vectors were added in all transfections up to 2 μg of total DNA. Normalization of transfection efficiency was done by adding 0.2 μg of pCMV-LacZ plasmid. Luciferase activity and β-galactosidase activity were measured in lysates prepared 48 hours after transfection with Cell Lysis Buffer (Promega) by the luciferase assay system (Promega) or β-galactosidase enzyme system (Promega). Luminometric and colorimetric reactions were read on the Wallack 1420 plate reader (Perkin Elmer). Stable transduction of reporters. 2×10^4 cells with integrated reporter were plated in 96-well plates. After overnight incubation, chemicals or media from lentivirus-producing cells were added. At different times, cell lysates were prepared using Reporter Lysis Buffer (Promega). Luciferase or β-galactosidase activity and protein concentration were measured in aliquots of cell lysates using standard kits (Promega, Luciferase and β-galactosidase assay systems, Biorad Protein Assay Kit).
# [2] = system: NF-κB; experiment: NF-κB-dependent reporter in H1299-NF-kBLuc cells; format: cell-based, human; conditions: for basal activity of NF-κB: H1299-NF-κBLuc cells, tested side-by-side with 9AA
# Experimental: as §1
# [3] = system: ACHN cells; experiment: Experimental chemotherapy of tumor xenografts; format: in vivo, nude mice; conditions: ACHN xenograft nude mice; QC 50 mg/kg; 5-fluorouracil 35 mg/kg
# Experimental: NIH Swiss athymic nude, male mice, 5-6 weeks old, were purchased from Harlan. 5×10^6 tumor cells were inoculated into the flanks of mice in 100 μL of PBS. When tumors reached 5 mm in diameter, intraperitoneal injections of drugs were started in 100 μL of a solution of 50% DMSO in PBS (except for quinacrine, which was dissolved in PBS). As vehicle, 50% DMSO solution in PBS was used. Tumor size was measured in three dimensions every other day.
# [4] = system: p53; experiment: Screening for p53-activating compounds, p53-responsive reporter in RCC45ConALacZ cells; format: cell-based, human
# Experimental: as §1
# The DiverSet library of 34,000 chemical compounds and focused libraries of structural analogues of selected hits were provided by Chembridge, Calif. Cell lines with p53- or NF-κB-responsive luciferase or β-galactosidase reporters were described previously (5, 7). For screening chemicals, 2×10^4 RCC45ConALacZ cells (RCC45-based p53 reporter cells) were plated per well of 96-well plates in 200 μL of phenol-red-free RPMI medium with standard additions. After overnight incubation, the compounds were added to final concentrations of 5-15 μM (0.2 μL of compound in DMSO per well). […] After 24 h, lysis buffer with ortho-nitrophenyl-β-D-galactopyranoside (ONPG) was added and β-galactosidase activity was estimated colorimetrically by a multiwell plate reader.
# [5] = system: p53; experiment: p53 reporter in organ cultures of human RCC tumor samples; format: cell-based; conditions: organ cultures of adjacent normal kidney, 12 hours
# Experimental: FIG. 11. QC can activate p53 transactivation in organ cultures of human RCC tumor samples. Fresh surgically removed samples of tumor and adjacent normal kidney were cut into small pieces and put into media containing ConALacZ virus (5×10^7 TU/ml) with […] of polybrene for 4 hours. 24 hours after infection, tissue pieces (at least three per treatment) were incubated with media containing quinacrine or doxorubicin for 12 hours. Then the tissues were fixed for 30 min in PBS containing 0.5% glutaraldehyde and 1 mM MgCl2. Pieces of tumor were stained in PBS solution containing X-gal (1 mM MgCl2, 3.3 mM K4Fe(CN)6, 3.3 mM K3Fe(CN)6, 0.02% NP40, 0.2% X-gal) overnight at 37° C. Stained specimens were analyzed microscopically by squeezing pieces of tumor and normal tissues between two glass slides.
# [6] = system: p53-deficient cells; experiment: Survival of isogenic pairs of tumor cells differing in p53 expression; conditions: isogenic pairs of cell lines, shRNA-mediated p53 knockdown
# Experimental: All cells were maintained in RPMI 1640 medium, supplemented with 10% FBS, 1 mM sodium pyruvate, 10 mM Hepes buffer, 55 nM β-mercaptoethanol and antibiotics. […] Cells with inhibited p53 expression were generated by retroviral transduction of pBabeH1-sip53 or pBabeH1-siGFP vectors for siRNA expression with following selection on puromycin.
# Clonogenic survival. 5×10^3 cells were plated in 6-well plates and treated with different concentrations of drugs for 24 hours. Then fresh drug-free medium was added and the numbers of colonies were estimated 7-14 days later. Growth inhibition assay. […] Cell survival was estimated after an additional 48 hours, using standard Methylene Blue staining followed by extraction and colorimetrical detection of the dye.
# [7] = PLA2 inhibitors, data not shown
smiles,measurement,setting,value
COc1cc(CNC(=O)CCCC/C=C/C(C)C)ccc1O [capsaicin],activation of p53 by known NF-κB inhibitors,[1]; data not shown,capable of activating p53
same,basal activity of NF-κB,[2],did not reduce the basal activity
CC(/C=C/C(=O)NO)=C\[C@@H](C)C(=O)c1ccc(N(C)C)cc1 [trichostatin A],NF-κB-dependent transcription,"[2]; H1299 cells, 100 nM TSA, 4 or 16 hours",strong activation of NF-κB-dependent transcription
O=C(O)c1cc(/N=N/c2ccc(S(=O)(=O)Nc3ccccn3)cc2)ccc1O [sulfasalazine],activation of p53 by known NF-κB inhibitors,[1]; data not shown,capable of activating p53
same,basal activity of NF-κB,[2],did not reduce the basal activity
O=c1[nH]cc(F)c(=O)[nH]1 [5-fluorouracil],weight loss,[3],up to 20%
CCCCCCCCCCCCCCCCSC[C@H](COP(=O)(O)OCC[N+](C)(C)C)NC(=O)CCCCCCCCCCCCCCC [thioetheramide-PC],induction of p53,[1]; [7],could neither induce p53
same,inhibition of NF-κB,[2]; [7],nor inhibit NF-κB
COc1cccc2c1C(=O)c1c(O)c3c(c(O)c1C2=O)C[C@@](O)(C(=O)CO)C[C@@H]3O[C@H]1C[C@H](N)[C@H](O)[C@H](C)O1 [doxorubicin],activation of the p53-dependent reporter (p53 transactivation) in RCC,[4],weakly activating
same,time of peak (maximum) p53 reporter activity,[1]; HT1080 cells,8 to 12 h
same,p53-responsive reporter induction in normal kidney samples,[5],no reporter induction
same,toxicity to p53-deficient cells (p53 dependence of cytotoxicity),[6],equally or even more toxic than 9AA to p53-deficient cells
CC(=O)O[C@H]1C(=O)[C@@]2(C)[C@H]([C@H](OC(=O)c3ccccc3)[C@]3(O)C[C@H](OC(=O)[C@H](O)[C@@H](NC(=O)c4ccccc4)c4ccccc4)C(C)=C1C3(C)C)[C@]1(OC(C)=O)CO[C@@H]1C[C@@H]2O [taxol],toxicity to p53-deficient cells (p53 dependence of cytotoxicity),[6],equally or even more toxic than 9AA to p53-deficient cells
CC[C@@]1(O)C(=O)OCc2c1cc1n(c2=O)Cc2cc3ccccc3nc2-1 [camptothecin],toxicity to p53-deficient cells (p53 dependence of cytotoxicity),[6],equally or even more toxic than 9AA to p53-deficient cells
Cc1ccc(S(=O)(=O)/C=C/C#N)cc1 [Bay11-7082],activation of p53 by known NF-κB inhibitors,[1]; data not shown,capable of activating p53
same,basal activity of NF-κB,[2],did not reduce the basal activity
CC[C@]1(O)C[C@@H]2CN(CCc3c([nH]c4ccccc34)[C@@](C(=O)OC)(c3cc4c(cc3OC)N(C)[C@H]3[C@@](O)(C(=O)OC)[C@H](OC(C)=O)[C@]5(CC)C=CCN6CC[C@]43[C@@H]65)C2)C1 [vinblastine],toxicity to p53-deficient cells (p53 dependence of cytotoxicity),[6],equally or even more toxic than 9AA to p53-deficient cells
